According to patent publication US12692264B2, “Pyrimidine or pyridine derivative, preparation method therefor, and application thereof in pharmacy” (ABBISKO THERAPEUTICS CO., LTD., priority 2021, dated 2026):

What follows are compounds tested against Ba/F3 EGFR-D770-N771ins_SVD (Homo sapiens, UniProt P00533, DUP768-770, cells depend on it) (assay: Cell proliferation study (CellTiter-Glo, 72 hrs), Ba/F3 EGFR-D770-N771ins_SVD). Details: CTG, * = average of multiple measurements, read-out: Ba/F3 EGFR-D770-N771ins_SVD IC50.
Format: cell-based
Description: (I) Reagents and Materials
• Fetal bovine serum FBS (GBICO, Cat #10099-141); • CellTiter-Glo® luminescent cell viability assay kit (Promega, Cat #G7572); • Black transparent flat-bottom 96-well plate (Corning®, Cat #3603). (II) Instruments • SpectraMax multi-label microplate reader MD, 2104-0010A; • Carbon dioxide incubator, Thermo Scientific 3100 series; • Biological safety cabinet, Thermo Scientific, 1300 series model A2; • Inverted microscope, Olympus, CKX41SF; • Siemens refrigerator KK25E76T1. (III) Cell Lines and Culture Conditions
(IV) Experimental Procedures 1. Cell Culture and Inoculation: • (1) Cells in the logarithmic growth phase were harvested and counted using a […]. The cell viability was determined by the trypan blue dye exclusion method to ensure cell viability above 90%. • (2) The cell concentration was adjusted to reach a desired final density; 90 μL of cell suspension was added to a 96-well plate. • (3) The cells were incubated overnight in the 96-well plate at 37° C., 5% CO2 and with 95% humidity. 2. T0 Benchmark Data: • (1) 10 μL of PBS was added to each well of the TO plate containing the cells. • (2) The CTG reagent was thawed and the cell plate was equilibrated to room temperature for 30 min. • (3) An equal volume of CTG solution was added to each well. • (4) The cells were lysed by shaking on an orbital shaker for 5 min. • (5) The cell plate was left to stand at room temperature for 20 min to stabilize the fluorescence signal. • (6) The fluorescence signal values of TO were read. 3. Dilution and Addition of Compounds • (1) According to the compound information table, a corresponding volume of DMSO was added to the corresponding compound powder to prepare a 10 mM stock solution. • (2) A 1000-fold, 3.16-fold-diluted compound solution was prepared. • (3) The 1000× diluted compound solution was diluted 100-fold with PBS to prepare a 10-fold compound solution with a maximum concentration of 10 μM, including 9 concentrations, with 3.16-fold dilution, and 10 μL of the medicament solution was added to each well of the 96-well plate to seed the cells. Triplicate wells were set for each compound concentration, with a final concentration of DMSO being 0.1%. • (4) The cells were placed in the 96-well plate containing the medicament at 37° C., 5% CO2 and with 95% humidity, and cultured for 72 hrs before CTG analysis. 4. Fluorescence Signal Reading • (1) The CTG reagent was thawed and the cell plate was equilibrated to room temperature for 30 min. • (2) An equal volume of CTG solution was added to each well. • (3) The cells were lysed by shaking on an orbital shaker for 5 min. • (4) The cell plate was left to stand at room temperature for 20 min to stabilize the fluorescence signal. • (5) The fluorescence values were read. 5. Data Processing
Data were analyzed using GraphPad Prism 7.0 software and fitted data were regressed using non-linear S-curves to obtain dose-response curves from which IC50 values (in nM) were calculated.

Sequence of Ba/F3 EGFR-D770-N771ins_SVD (P00533 with tags, fused parts or gaps DUP768-770): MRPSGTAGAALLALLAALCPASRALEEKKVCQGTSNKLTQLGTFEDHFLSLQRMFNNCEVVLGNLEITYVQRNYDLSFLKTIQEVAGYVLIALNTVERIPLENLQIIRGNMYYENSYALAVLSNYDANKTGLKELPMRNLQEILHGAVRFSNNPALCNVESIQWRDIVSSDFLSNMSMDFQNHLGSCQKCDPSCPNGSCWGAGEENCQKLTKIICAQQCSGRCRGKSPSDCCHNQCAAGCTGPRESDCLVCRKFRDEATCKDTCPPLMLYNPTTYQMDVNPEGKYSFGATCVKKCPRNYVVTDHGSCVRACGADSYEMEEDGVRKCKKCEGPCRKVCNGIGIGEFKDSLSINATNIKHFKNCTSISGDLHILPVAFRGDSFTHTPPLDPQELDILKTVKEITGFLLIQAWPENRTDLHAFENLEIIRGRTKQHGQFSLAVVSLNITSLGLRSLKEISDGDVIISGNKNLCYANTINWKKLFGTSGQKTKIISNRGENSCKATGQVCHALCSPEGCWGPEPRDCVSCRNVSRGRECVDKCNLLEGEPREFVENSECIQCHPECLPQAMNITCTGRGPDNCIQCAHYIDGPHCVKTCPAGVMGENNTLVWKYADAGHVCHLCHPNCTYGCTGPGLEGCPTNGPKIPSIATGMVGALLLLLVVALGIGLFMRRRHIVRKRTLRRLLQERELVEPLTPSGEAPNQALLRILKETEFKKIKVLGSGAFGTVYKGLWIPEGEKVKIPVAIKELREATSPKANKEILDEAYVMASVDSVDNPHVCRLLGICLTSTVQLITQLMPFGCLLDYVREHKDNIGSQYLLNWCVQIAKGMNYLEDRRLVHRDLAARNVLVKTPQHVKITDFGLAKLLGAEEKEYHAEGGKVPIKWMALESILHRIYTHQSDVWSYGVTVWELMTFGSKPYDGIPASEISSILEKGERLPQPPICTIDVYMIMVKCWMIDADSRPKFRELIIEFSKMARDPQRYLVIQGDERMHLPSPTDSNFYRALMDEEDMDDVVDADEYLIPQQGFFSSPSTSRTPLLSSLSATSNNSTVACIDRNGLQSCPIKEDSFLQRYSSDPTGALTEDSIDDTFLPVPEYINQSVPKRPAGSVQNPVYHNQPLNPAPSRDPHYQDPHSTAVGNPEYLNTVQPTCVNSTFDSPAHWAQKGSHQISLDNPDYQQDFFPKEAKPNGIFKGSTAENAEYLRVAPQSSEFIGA

GI50 [nM] | Structure (SMILES)
116 | C=CC(=O)Nc1cc(Nc2ncc(C(=O)OC(C)C)c(N3CC(C)(C)c4nc(Br)ccc43)n2)c(OC)cc1N(C)CCN(CC)CC [Example 90, isopropyl 2-((5-acrylamido-4-((2-(diethyl-amino)ethyl)(methyl)amino)-2-methoxyphenyl)amino)-4-(5-bromo-3,3-dimethyl-2,3-dihydro-1H-pyrrolo[3,2-b]pyridin-1-yl)pyrimidine-5-carboxylate]
254 | C=CC(=O)Nc1cc(Nc2ncc(C(=O)OC(C)C)c(N3CC(C)(C)c4nc(C#CC)ccc43)n2)c(OC)cc1N1CCN(C)C(C)C1 (stereo not drawn) [Example 95, isopropyl 2-((5-acrylamido-4-(3,4-dimethyl-piperazin-1-yl)-2-methoxy-phenyl)amino)-4-(3,3-dimethyl-5-(prop-1-yn-1-yl)-2,3-dihydro-1H-pyrrolo[3,2-b]pyridin-1-yl)pyrimidine-5-carboxylate]
199 | C=CC(=O)Nc1cc(Nc2ncc(C(=O)OC(C)C)c(N3CC4(CC4)c4nc(C)ccc43)n2)c(OC)cc1N1CCC[C@H]1CN(C)C [Example 51, isopropyl (S)-2-((5-acrylamido-4-(2-((dimethyl-amino)methyl)pyrrolidin-1-yl)-2-meth-oxyphenyl)amino)-4-(5′-methyl-spiro(cyclopropane-1,3′-pyrrolo[3,2-b]pyridin)-1′(2′H)-yl)pyrimidine-5-carboxylate]
255 | C=CC(=O)Nc1cc(Nc2ncc(C(=O)OC(C)C)c(N3CC(C)(C)c4nc(C)ccc43)n2)c(OC)cc1N1CCC[C@@H](N(C)C)C1 [Example 61, isopropyl (R)-2-((5-acrylamido-4-(3-(dimethyl-amino)piperidin-1-yl)-2-methoxy-phenyl)amino)-4-(3,3,5-trimethyl-2,3-dihydro-1H-pyrrolo[3,2-b]pyridin-1-yl)pyrimidine-5-carboxylate]
135 | C=CC(=O)Nc1cc(Nc2ncc(C(=O)OC(C)C)c(N3CC(C)(C)c4nc(C(F)(F)F)ccc43)n2)c(OC)cc1N(C)CCN(C)C [Example 17, isopropyl 2-((5-acrylamido-4-((2-(dimethylami-no)ethyl)(methyl)amino)-2-methoxy-phenyl)amino)-4-(3,3-dimethyl-5-(trifluoromethyl)-2,3-dibydro-1H-pyrrolo[3,2-b]pyridin-1-yl)pyrimidine-5-carboxylate]
92.2 | C=CC(=O)Nc1cc(Nc2ncc(C(=O)OC(C)C)c(N3CC(C)(C)c4nc(C#N)ccc43)n2)c(OC)cc1N(C)CCN(C)C [Example 23, isopropyl 2-((5-acrylamido-4-((2-(dimethylami-no)ethyl)(methyl)amino)-2-methoxy-phenyl)amino)-4-(5-cyano-3,3-dimethyl-2,3-dihydro-1H-pyrrolo[3,2-b]pyridin-1-yl)pyrimidine-5-carboxylate]
204 | C=CC(=O)Nc1cc(Nc2ncc(C(=O)OC(C)C)c(N3CC(C)(C)c4nc(C)ccc43)n2)c(OC(C)C)cc1N(C)CCN(C)C [Example 28, isopropyl 2-((5-acrylamido-4-((2-(dimethylami-no)ethyl)(methyl)amino)-2-isopropoxy-phenyl)amino)-4-(3,3,5-trimethyl-2,3-dihydro-1H-pyrrolo[3,2-b]pyridin-1-yl)pyrimidine-5-carboxylate]
443 | C=CC(=O)Nc1cc(Nc2ncc(C(=O)OC(C)C)c(N3CC(C)(C)c4nc(C)ccc43)n2)c(OC)cc1N1CCN(CC)CC1 [Example 34, isopropyl 2-((5-acrylamido-4-(4-ethylpiperazin-1-yl)-2-methoxyphenyl)amino)-4-(3,3,5-trimethyl-2,3-dihydro-1H-pyrrolo[3,2-b]pyridin-1-yl)pyrimidine-5-carboxylate]
552 | [2H]C1([2H])N(c2nc(Nc3cc(NC(=O)C=C)c(N4CCN(C5CC5)CC4)cc3OC)ncc2C(=O)OC(C)C)c2ccc(C)nc2C1(C)C [Example 53, isopropyl 2-((5-acrylamido-4-(4-cyclopropyl-piperazin-1-yl)-2-methoxy-phenyl)amino)-4-(3,3,5-trimethyl-2,3-dihydro-1H-pyrrolo[3,2-b]pyridin-1-yl-2,2-d2)pyrimidine-5-carboxylate]
72.9 | C=CC(=O)Nc1cc(Nc2ncc(C(=O)OC(C)C)c(N3CC(C)(C)c4nc(C)ccc43)n2)c(OCC)cc1N(C)CCN(C)C [Example 37, isopropyl 2-((5-acrylamido-4-((2-(dimethylami-no)ethyl)(methyl)amino)-2-ethoxy-phenyl)amino)-4-(3,3,5-trimethyl-2,3-dihydro-1H-pyrrolo[3,2-b]pyridin-1-yl)pyrimidine-5-carboxylate]
39 | C=CC(=O)Nc1cc(Nc2ncc(C(=O)OC(C)C)c(N3CC(C)(C)c4nc(C(=C)C)ccc43)n2)c(OC)cc1N(C)CCN(C)C [Example 14, isopropyl 2-((5-acrylamido-4-((2-(dimethylami-no)ethyl)(methyl)amino)-2-methoxy-phenyl)amino)-4-(3,3-dimethyl-5-(prop-1-en-2-yl)-2,3-dihydro-1H-pyrrolo[3,2-b]pyridin-1-yl)pyrimidine-5-carboxylate]
339 | C=CC(=O)Nc1cc(Nc2ncc(C(=O)OC(C)C)c(N3CC(C)(C)c4nc(N5CCC5)ccc43)n2)c(OC)cc1N(C)CCN(C)C [Example 38, isopropyl 2-((5-acrylamido-4-((2-(dimethylami-no)ethyl)(methyl)amino)-2-methoxy-phenyl)amino)-4-(5-(azetidin-1-yl)-3,3-dimethyl-2,3-dihydro-1H-pyrrolo[3,2-b]pyridin-1-yl)pyrimidine-5-carboxylate]
78.3 | C=CC(=O)Nc1cc(Nc2ncc(C(=O)OC(C)C)c(N3CC(C)(C)c4nc(C)ccc43)n2)c(OC)cc1N1CC[C@H](N(C)C)C1 [Example 13, isopropyl (S)-2-((5-acrylamido-4-(3-(dimethyl-amino)pyrrolidin-1-yl)-2-methoxy-phenyl)amino)-4-(3,3,5-trimethyl-2,3-dihydro-1H-pyrrolo[3,2-b]pyridin-1-yl)pyrimidine-5-carboxylate]
2850 | C=CC(=O)Nc1cc(Nc2ncc(C(=O)OC(C)C)c(N3CC(C)(C)c4nc(C#CC)ccc43)n2)c(OC)cc1N1CCN(C2CC2)CC1 [Example 75, isopropyl 2-((5-acrylamido-4-(4-cyclopropyl-piperazin-1-yl)-2-methoxyphenyl)ami-no)-4-(3,3-dimethyl-5-(prop-1-yn-1-yl)-2,3-dihydro-1H-pyrrolo[3,2-b]pyridin-1-yl)pyrimidine-5-carboxylate]
501 | C=CC(=O)Nc1cc(Nc2ncc(C(=O)OC(C)C)c(N3CC(C)(C)c4nc(C#CC)ccc43)n2)c(OC)cc1N1CCN(C)CC1 [Example 70, isopropyl 2-((5-acrylamido-2-methoxy-4-(4-methylpiperazin-1-yl)phenyl)amino)-4-(3,3-dimethyl-5-(prop-1-yn-1-yl)-2,3-dihydro-1H-pyrrolo[3,2-b]pyridin-1-yl)pyrimidine-5-carboxylate]
60 | C=CC(=O)Nc1cc(Nc2ncc(C(=O)OC(C)C)c(N3CC(C)(C)c4cc(F)c(F)cc43)n2)c(OC)cc1N1CC[C@@H](N(C)C)C1 [Example 94, isopropyl (R)-2-((5-acrylamido-4-(3-(dimethyl-amino)pyrrolidin-1-yl)-2-methoxy-phenyl)amino)-4-(5,6-difluoro-3,3-dimethylindolin-1-yl)pyrimidine-5-carboxylate]
111 | C=CC(=O)Nc1cc(Nc2ncc(C(=O)OC(C)C)c(N3CC4(CC(F)(F)C4)c4nc(C)ccc43)n2)c(OC)cc1N(C)CCN(C)C [Example 24, isopropyl 2-((5-acrylamido-4-((2-(dimethylami-no)ethyl)(methyl)amino)-2-methoxy-phenyl)amino)-4-(3,3-difluoro-5′-methylspiro(cyclobutane-1,3′-pyrrolo[3,2-b]pyridin)-1′(2′H)-yl)pyrimidine-5-carboxylate]
44.4 | C=CC(=O)Nc1cc(Nc2ncc(C(=O)OC(C)C)c(N3CC(C)(C)c4nc(C)ccc43)n2)c(OC2CC2)cc1N(C)CCN(C)C [Example 32, isopropyl 2-((5-acrylamido-2-cyclopropoxy-4-((2-(dimethylamino)ethyl)(methyl)ami-no)phenyl)amino)-4-(3,3,5-trimethyl-2,3-dihydro-1H-pyrrolo[3,2-b]pyridin-1-yl)pyrimidine-5-carboxylate]
